Starred links: 1 amine or outer side, 2 acyl side, 3 side chain; linkers in the order of their positions; H or OH if unused. Positions of bridges follow the written chain, without caps; N, C: chain ends. Residues, ends and D or L forms follow the SMILES beside them. *: point of attachment. C18 diacid = O=C(O)CCCCCCCCCCCCCCCCC(=O)*; γGlu = O=C(O)[C@H](CCC(=O)[*:2])N[*:1]; AEEA = NCCOCCOCC(=O)O
Each compound was assayed against T1, human natriuretic peptide receptor 2 (hNPR2) (Homo sapiens, UniProt P20594) (assay: In vitro hNPR2 activity assay (cGMP GloSensor reporter, HEK293)). Conditions: potency relative to CNP22 (0065).
T1 construct: expressed in transfected cells; host or cells: HEK293 (ATCC CRL-1573), clone 35, co-transfected with pGloSensor-42F
T1 sequence (P20594 23-1047): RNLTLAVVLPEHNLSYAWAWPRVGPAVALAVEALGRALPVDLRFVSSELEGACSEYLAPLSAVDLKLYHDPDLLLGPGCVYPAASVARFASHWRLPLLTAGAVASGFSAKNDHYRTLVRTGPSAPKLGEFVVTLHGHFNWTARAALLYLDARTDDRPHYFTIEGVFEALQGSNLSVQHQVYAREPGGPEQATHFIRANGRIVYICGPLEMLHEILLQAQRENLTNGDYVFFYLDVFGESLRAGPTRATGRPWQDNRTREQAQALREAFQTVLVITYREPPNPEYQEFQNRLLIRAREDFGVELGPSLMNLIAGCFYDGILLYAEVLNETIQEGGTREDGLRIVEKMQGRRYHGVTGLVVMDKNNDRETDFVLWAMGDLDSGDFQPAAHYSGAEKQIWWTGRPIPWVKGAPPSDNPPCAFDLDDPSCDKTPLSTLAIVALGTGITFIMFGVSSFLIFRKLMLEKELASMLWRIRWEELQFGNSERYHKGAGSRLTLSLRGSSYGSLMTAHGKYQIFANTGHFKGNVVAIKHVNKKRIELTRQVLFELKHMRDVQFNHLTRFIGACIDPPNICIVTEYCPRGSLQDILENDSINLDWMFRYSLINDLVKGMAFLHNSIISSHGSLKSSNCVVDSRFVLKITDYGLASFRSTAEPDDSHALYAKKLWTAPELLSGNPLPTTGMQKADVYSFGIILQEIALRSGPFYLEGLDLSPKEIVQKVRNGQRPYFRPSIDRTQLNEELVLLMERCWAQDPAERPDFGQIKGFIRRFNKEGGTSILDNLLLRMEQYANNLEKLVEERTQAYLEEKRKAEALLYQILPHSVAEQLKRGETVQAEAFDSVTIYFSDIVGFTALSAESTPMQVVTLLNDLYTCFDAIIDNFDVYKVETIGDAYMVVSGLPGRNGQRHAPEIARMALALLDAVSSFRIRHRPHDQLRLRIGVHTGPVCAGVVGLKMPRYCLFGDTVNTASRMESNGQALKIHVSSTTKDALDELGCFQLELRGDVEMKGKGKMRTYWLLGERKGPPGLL
Format: cell-based
Summary of the method: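 Potency is the EC50 from a four-parameter logistic fit, also expressed relative to the in-plate CNP22 control (×100), with at least two replicates. Compounds (ten concentrations, […], HSA-free diluent with 1% OVA, 0.01% Tween20) were incubated 30 min at 37 °C on HEK293 cells co-expressing hNPR2 and a GloSensor cGMP luciferase. Luminescence detected with Bright-Glo.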

Row | SMILES | hNPR2 0% HSA. [EC50% rel CNP] [%]
1 | CC[C@H](C)[C@@H]1NC(=O)[C@H](CCCNC(=N)N)NC(=O)[C@H](CC(=O)O)NC(=O)[C@H](CC(C)C)NC(=O)[C@@H]2CCCN2C(=O)[C@H](CC(C)C)NC(=O)CNC(=O)[C@H](Cc2ccccc2)NC(=O)[C@@H](NC(=O)CNC(=O)[C@H](CO)NC(=O)[C@H](CO)NC(=O)[C@H](CC(C)C)NC(=O)CNC(=O)[C@H](CCCCN)NC(=O)[C@H](CCCCN)NC(=O)[C@H](CCC(N)=O)NC(=O)[C@H](C)NC(=O)CNC(=O)[C@H](CCC(=O)O)NC(=O)[C@H](Cc2ccc(O)cc2)NC(=O)[C@H](CO)NC(=O)[C@H](CCCNC(=N)N)NC(=O)[C@H](C)NC(=O)[C@H](CCC(=O)O)NC(=O)[C@@H]2CCCN2C(=O)[C@H](Cc2c[nH]cn2)NC(=O)[C@H](CCC(=O)O)NC(=O)[C@H](CCC(N)=O)NC(=O)COCCOCCNC(=O)COCCOCCNC(=O)CC[C@H](NC(=O)CCCCCCCCCCCCCCCCC(=O)O)C(=O)O)CSSC[C@@H](C(=O)O)NC(=O)CNC(=O)[C@H](CC(C)C)NC(=O)CNC(=O)[C@H](CO)NC(=O)[C@H](CC(C)C)NC(=O)[C@H](CO)NC(=O)CNC1=O [compound 1380] ({C18 diacid-γGlu-AEEA-AEEA}-QEHPEARSYEGAQKKGLSSGCFGLPLDRIGSLSGLGC-OH; disulfide 21-37; C-terminus assumed) | 15.7
2 | CC[C@H](C)[C@@H]1NC(=O)[C@H](CCCNC(=N)N)NC(=O)[C@H](CC(=O)O)NC(=O)[C@H](CC(C)C)NC(=O)[C@@H]2CCCN2C(=O)[C@H](CC(C)C)NC(=O)CNC(=O)[C@H](Cc2ccccc2)NC(=O)[C@@H](NC(=O)CNC(=O)[C@H](CCC(N)=O)NC(=O)[C@H](CO)NC(=O)[C@H](CO)NC(=O)CNC(=O)[C@H](Cc2c[nH]cn2)NC(=O)[C@H](CCCCN)NC(=O)[C@H](CCC(N)=O)NC(=O)[C@H](C)NC(=O)CNC(=O)[C@H](Cc2c[nH]cn2)NC(=O)[C@H](Cc2ccc(O)cc2)NC(=O)[C@H](CCCCN)NC(=O)[C@H](Cc2c[nH]cn2)NC(=O)[C@H](C)NC(=O)[C@H](CCC(N)=O)NC(=O)[C@@H]2CCCN2C(=O)[C@H](Cc2c[nH]cn2)NC(=O)[C@H](CCC(=O)O)NC(=O)[C@H](CCC(N)=O)NC(=O)COCCOCCNC(=O)COCCOCCNC(=O)CC[C@H](NC(=O)CC[C@H](NC(=O)CCCCCCCCCCCCCCCCC(=O)O)C(=O)O)C(=O)O)CSSC[C@@H](C(=O)O)NC(=O)CNC(=O)[C@H](CC(C)C)NC(=O)CNC(=O)[C@H](CO)NC(=O)[C@H](CC(C)C)NC(=O)[C@H](CO)NC(=O)CNC1=O [compound 1383] ({C18 diacid-γGlu-γGlu-AEEA-AEEA}-QEHPQAHKYHGAQKHGSSQGCFGLPLDRIGSLSGLGC-OH; disulfide 21-37) | 43.1
3 | CC[C@H](C)[C@@H]1NC(=O)[C@H](CCCNC(=N)N)NC(=O)[C@H](CC(=O)O)NC(=O)[C@H](CC(C)C)NC(=O)[C@@H]2CCCN2C(=O)[C@H](CC(C)C)NC(=O)CNC(=O)[C@H](Cc2ccccc2)NC(=O)[C@@H](NC(=O)CNC(=O)[C@H](CCCCN)NC(=O)[C@H](CO)NC(=O)[C@H](CC(C)C)NC(=O)CNC(=O)[C@H](CCCCN)NC(=O)[C@H](CCCCN)NC(=O)[C@H](CCC(N)=O)NC(=O)[C@H](C)NC(=O)CNC(=O)[C@H](CCC(=O)O)NC(=O)[C@H](Cc2ccc(O)cc2)NC(=O)[C@H](CCCCN)NC(=O)[C@H](CCCNC(=N)N)NC(=O)[C@H](C)NC(=O)CC[C@H](NC(=O)CC[C@H](NC(=O)CC[C@H](NC(=O)CC[C@H](NC(=O)CCCCCCCCCCCCCCCCC(=O)O)C(=O)O)C(=O)O)C(=O)O)C(=O)O)CSSC[C@@H](C(=O)O)NC(=O)CNC(=O)[C@H](CC(C)C)NC(=O)CNC(=O)[C@H](CO)NC(=O)[C@H](CC(C)C)NC(=O)[C@H](CO)NC(=O)CNC1=O [compound 1385] ({C18 diacid-γGlu-γGlu-γGlu-γGlu}-ARKYEGAQKKGLSKGCFGLPLDRIGSLSGLGC-OH; disulfide 16-32) | 30.7
4 | CC[C@H](C)[C@@H]1NC(=O)[C@H](CCCNC(=N)N)NC(=O)[C@H](CC(=O)O)NC(=O)[C@H](CC(C)C)NC(=O)[C@@H]2CCCN2C(=O)[C@H](CC(C)C)NC(=O)CNC(=O)[C@H](Cc2ccccc2)NC(=O)[C@@H](NC(=O)CNC(=O)[C@H](CO)NC(=O)[C@H](CO)NC(=O)[C@H](CC(C)C)NC(=O)CNC(=O)[C@H](CCCCN)NC(=O)[C@H](CCCCN)NC(=O)[C@H](CCC(N)=O)NC(=O)[C@H](C)NC(=O)CNC(=O)[C@H](CCCCN)NC(=O)[C@H](Cc2ccc(O)cc2)NC(=O)CNC(=O)CNC(=O)CNC(=O)CC[C@H](NC(=O)CC[C@H](NC(=O)CC[C@H](NC(=O)CC[C@H](NC(=O)CCCCCCCCCCCCCCCCC(=O)O)C(=O)O)C(=O)O)C(=O)O)C(=O)O)CSSC[C@@H](C(=O)O)NC(=O)CNC(=O)[C@H](CC(C)C)NC(=O)CNC(=O)[C@H](CO)NC(=O)[C@H](CC(C)C)NC(=O)[C@H](CO)NC(=O)CNC1=O [compound 1387] ({C18 diacid-γGlu-γGlu-γGlu-γGlu}-GGGYKGAQKKGLSSGCFGLPLDRIGSLSGLGC-OH; disulfide 16-32; C-terminus assumed) | 20.6
5 | CC[C@H](C)[C@@H]1NC(=O)[C@H](CCCNC(=N)N)NC(=O)[C@H](CC(=O)O)NC(=O)[C@H](CC(C)C)NC(=O)[C@@H]2CCCN2C(=O)[C@H](CC(C)C)NC(=O)CNC(=O)[C@H](Cc2ccccc2)NC(=O)[C@@H](NC(=O)CNC(=O)[C@H](CCCCN)NC(=O)[C@H](CO)NC(=O)[C@H](CC(C)C)NC(=O)CNC(=O)[C@H](CCCCN)NC(=O)[C@H](CCCCN)NC(=O)[C@H](CCC(N)=O)NC(=O)[C@H](C)NC(=O)CNC(=O)[C@H](CCCCN)NC(=O)[C@H](Cc2ccc(O)cc2)NC(=O)CNC(=O)CNC(=O)CNC(=O)CC[C@H](NC(=O)CC[C@H](NC(=O)CC[C@H](NC(=O)CC[C@H](NC(=O)CCCCCCCCCCCCCCCCC(=O)O)C(=O)O)C(=O)O)C(=O)O)C(=O)O)CSSC[C@@H](C(=O)O)NC(=O)CNC(=O)[C@H](CC(C)C)NC(=O)CNC(=O)[C@H](CO)NC(=O)[C@H](CC(C)C)NC(=O)[C@H](CO)NC(=O)CNC1=O [compound 1388] ({C18 diacid-γGlu-γGlu-γGlu-γGlu}-GGGYKGAQKKGLSKGCFGLPLDRIGSLSGLGC-OH; disulfide 16-32) | 23.5
6 | CC[C@H](C)[C@@H]1NC(=O)[C@H](CCCNC(=N)N)NC(=O)[C@H](CC(=O)O)NC(=O)[C@H](CC(C)C)NC(=O)[C@@H]2CCCN2C(=O)[C@H](CC(C)C)NC(=O)CNC(=O)[C@H](Cc2ccccc2)NC(=O)[C@@H](NC(=O)CNC(=O)[C@H](CO)NC(=O)[C@H](CO)NC(=O)[C@H](CC(C)C)NC(=O)CNC(=O)[C@H](CCCCN)NC(=O)[C@H](CCCCN)NC(=O)[C@H](CCC(N)=O)NC(=O)[C@H](C)NC(=O)CNC(=O)[C@H](CCC(=O)O)NC(=O)[C@H](Cc2ccc(O)cc2)NC(=O)[C@H](CCCCN)NC(=O)[C@H](CCCNC(=N)N)NC(=O)[C@H](C)NC(=O)[C@H](CCC(N)=O)NC(=O)[C@@H]2CCCN2C(=O)[C@H](Cc2c[nH]cn2)NC(=O)[C@H](CCC(=O)O)NC(=O)[C@H](CCC(N)=O)NC(=O)CC[C@H](NC(=O)CC[C@H](NC(=O)CC[C@H](NC(=O)CC[C@H](NC(=O)CCCCCCCCCCCCCCCCC(=O)O)C(=O)O)C(=O)O)C(=O)O)C(=O)O)CSSC[C@@H](C(=O)O)NC(=O)CNC(=O)[C@H](CC(C)C)NC(=O)CNC(=O)[C@H](CO)NC(=O)[C@H](CC(C)C)NC(=O)[C@H](CO)NC(=O)CNC1=O [compound 1390] ({C18 diacid-γGlu-γGlu-γGlu-γGlu}-QEHPQARKYEGAQKKGLSSGCFGLPLDRIGSLSGLGC-OH; disulfide 21-37; C-terminus assumed) | 84.6
7 | CC[C@H](C)[C@@H]1NC(=O)[C@H](CCCNC(=N)N)NC(=O)[C@H](CC(=O)O)NC(=O)[C@H](CC(C)C)NC(=O)[C@@H]2CCCN2C(=O)[C@H](CC(C)C)NC(=O)CNC(=O)[C@H](Cc2ccccc2)NC(=O)[C@@H](NC(=O)CNC(=O)[C@H](CCCCN)NC(=O)[C@H](CO)NC(=O)CNC(=O)CNC(=O)[C@H](CCCCN)NC(=O)[C@H](CCCCN)NC(=O)[C@H](CCC(N)=O)NC(=O)[C@H](C)NC(=O)CNC(=O)[C@H](CCC(=O)O)NC(=O)[C@H](Cc2ccc(O)cc2)NC(=O)COCCOCCNC(=O)COCCOCCNC(=O)COCCOCCNC(=O)COCCOCCNC(=O)CC[C@H](NC(=O)CCCCCCCCCCCCCCCCC(=O)O)C(=O)O)CSSC[C@@H](C(=O)O)NC(=O)CNC(=O)[C@H](CC(C)C)NC(=O)CNC(=O)[C@H](CO)NC(=O)[C@H](CC(C)C)NC(=O)[C@H](CO)NC(=O)CNC1=O [compound 1391] ({C18 diacid-γGlu-AEEA-AEEA-AEEA-AEEA}-YEGAQKKGGSKGCFGLPLDRIGSLSGLGC-OH; disulfide 13-29) | 37.9

From US20240209028A1, “CNP COMPOUNDS” (priority 2022, published 2024)
